Source: patent US12285012B2, “Compositions comprising pyridine carboxylate herbicides with acetolactate synthase (ALS) inhibitor herbicides” (Corteva Agriscience LLC, priority 2018, dated 2025)
Several values for one entry are separate records, joined by “and”; a condition that tells them apart may be missing. Equal entries are not always repeated. Where two headings read alike, the source gives them in different places.

Columns and labels:
[1] = system: Canadian thistle (CIRAR, Cirsium arvense); experiment: Greenhouse postemergence herbicidal effect; format: in vivo
In short: (§1)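 Visual injury ratings (0 = no injury, 100 = complete kill) were taken 20–22 d after treatment relative to solvent-blank controls. Applications were made to plants at the second or third true leaf stage, using emulsifiable concentrates with cloquintocet-mexyl safener.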

[2] = system: Russian thistle (SASKR, Salsola kali); experiment: Greenhouse postemergence herbicidal effect; format: in vivo
In short: as §1

[3] = system: chickweed (STEME, Stellaria media); experiment: Greenhouse postemergence herbicidal effect; format: in vivo
In short: as §1

[4] = system: pigweed (AMARE, Amaranthus retroflexus); experiment: Greenhouse postemergence herbicidal effect; format: in vivo
In short: as §1

[5] = system: pineapple weed (MATMT, Matricaria discoidea); experiment: Greenhouse postemergence herbicidal effect; format: in vivo
In short: as §1

[6] = system: wild buckwheat (POLCO, Polygonum convolvulus); experiment: Greenhouse postemergence herbicidal effect; format: in vivo
In short: as §1

[7] = system: wild chamomile (MATCH, Matricaria chamomilla); experiment: Greenhouse postemergence herbicidal effect; format: in vivo
In short: as §1

[8] = system: wild pansy (VIOTR, Viola tricolor); experiment: Greenhouse postemergence herbicidal effect; format: in vivo
In short: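 Injury was rated visually after 20-22 d on a 0 (none) to 100% (complete kill) scale relative to solvent-sprayed controls, with sub-irrigation to avoid wash-off. Rates were given in g ae/ha or g ai/ha depending on component.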

[9] = system: winter rape (BRSNW, Brassica napus); experiment: Greenhouse postemergence herbicidal effect; format: in vivo
In short: as §1

[10] = system: common lambsquarters (CHEAL, Chenopodium album L.); experiment: Greenhouse postemergence herbicidal effect; format: in vivo
spring wheat (TRZAS) = format: in vivo, Triticum aestivum; settings: for % visual injury Obs-Exp: Pyroxsulam 0
In short: as §1

[11] = Compound A 10 g/ha (Examples 62-63)
[12] = Compound A 10 g/ha, safener mefenpyr-diethyl

N#CCOC(=O)c1nc(-c2ccc3cc[nH]c3c2F)c(F)c(N)c1Cl [Compound A, cyanomethyl 4-amino-3-chloro-5-fluoro-6-(7-fluoro-1H-indol-6-yl)pyridine-2-carboxylate]
Obs % visual injury ([1]; CIRAR, Compound A 10 g/ha (Table 65)): 20% | Obs % visual injury ([1]; CIRAR, Compound A 10 g/ha (Table 66)): 30% | Obs % visual injury ([1]; CIRAR, Compound A 15 g/ha): 55% | pest or weed control at 10 g/ha ([1]; Cirsium arvense, post-emergence, 10 g/ha, read-out: % visual injury, Obs): 43% | pest or weed control at 10 g/ha ([1]; Cirsium arvense, post-emergence, CIRAR, Compound A 10 g/ha, read-out: % visual injury, Obs): 33% | pest or weed control at 15 g/ha ([1]; Cirsium arvense, post-emergence, CIRAR, Compound A 15 g/ha, read-out: % visual injury, Obs): 55% | pest or weed control at 10 g/ha ([1]; Cirsium arvense, post-emergence, Compound A 10 g/ha, read-out: % visual injury, Obs): 20% | pest or weed control at 10 g/ha ([1]; Cirsium arvense, post-emergence, Compound A 10 g/ha, safener mefenpyr-diethyl, read-out: % visual injury, Obs): 43% | % visual injury ([1]; Compound A 10 g/ha): 40% and 60% and 30% and 33% | % visual injury Obs ([1]; Compound A 10 g/ha): 33% and 55% | CIRAR % visual injury Obs [1, 11]: 20% | CIRAR % visual injury Obs [1, 12]: 43% | % visual injury ([1]; Compound A 15 g/ha): 65% and 55% | % visual injury Obs ([1]; Compound A 15 g/ha): 55% | % visual injury, Obs ([2]; 10 g/ha): 60% and 63% | % visual injury ([2]; Compound A 10 g/ha): 70% and 63% | % visual injury Obs ([2]; Compound A 10 g/ha): 60% and 63% | % visual injury, Obs ([2]; Compound A 10 g/ha): 65% | SASKR % visual injury Obs [2, 11]: 65% | % visual injury ([2]; Compound A 15 g/ha): 75% | % visual injury, Obs ([2]; SASKR, Compound A 10 g/ha): 60% | Obs % visual injury ([2]; SASKR, Compound A 10 g/ha): 63% and 65% | Obs % visual injury ([2]; SASKR, Compound A 10 g/ha (Table 65)): 65% | Obs % visual injury ([2]; SASKR, Compound A 10 g/ha (Table 67)): 58% | Obs % visual injury ([2]; SASKR, Compound A 15 g/ha (Table 67)): 65% | % visual injury ([3]; Compound A 10 g/ha): 100% | % visual injury, Obs [3, 12]: 83% | STEME % visual injury Obs [3, 12]: 83% | % visual injury ([3]; Compound A 15 g/ha): 100% | % visual injury, Obs ([4]; 10 g/ha): 90% | % visual injury, Obs ([4]; AMARE, Compound A 10 g/ha): 75% | Obs % visual injury ([4]; AMARE, Compound A 10 g/ha): 75% and 85% and 100% | Obs % visual injury ([4]; AMARE, Compound A 10 g/ha (Table 65)): 100% | Obs % visual injury ([4]; AMARE, Compound A 10 g/ha (Table 66)): 90% | Obs % visual injury ([4]; AMARE, Compound A 10 g/ha (Table 67)): 78% | % visual injury, Obs ([4]; AMARE, Compound A 15 g/ha): 80% | Obs % visual injury ([4]; AMARE, Compound A 15 g/ha): 80% | Obs % visual injury ([4]; AMARE, Compound A 15 g/ha (Table 67)): 83% | % visual injury ([4]; Compound A 10 g/ha): 73% and 90% and 75% | % visual injury Obs ([4]; Compound A 10 g/ha): 75% and 100% and 85% | % visual injury, Obs ([4]; Compound A 10 g/ha): 100% | AMARE % visual injury Obs [4, 11]: 100% | % visual injury, Obs [4, 12]: 98% | AMARE % visual injury Obs [4, 12]: 98% | % visual injury ([4]; Compound A 15 g/ha): 80% | % visual injury Obs ([4]; Compound A 15 g/ha): 80% | % visual injury ([5]; Compound A 10 g/ha): 15% | % visual injury ([5]; Compound A 15 g/ha): 30% | % visual injury, Obs ([6]; 10 g/ha): 70% | % visual injury ([6]; Compound A 10 g/ha): 95% and 93% and 70% and 98% | % visual injury, Obs ([6]; Compound A 10 g/ha): 91% | POLCO % visual injury Obs [6, 11]: 91% | % visual injury, Obs [6, 12]: 100% | POLCO % visual injury Obs [6, 12]: 100% | % visual injury ([6]; Compound A 15 g/ha): 97% and 88% | % visual injury Obs ([6]; Compound A 15 g/ha): 88% | % visual injury, Obs ([6]; POLCO, Compound A 10 g/ha): 98% and 78% | Obs % visual injury ([6]; POLCO, Compound A 10 g/ha (Table 65)): 91% | Obs % visual injury ([6]; POLCO, Compound A 10 g/ha (Table 66)): 70% | Obs % visual injury ([6]; POLCO, Compound A 10 g/ha (Table 67)): 60% | % visual injury, Obs ([6]; POLCO, Compound A 15 g/ha): 88% | Obs % visual injury ([6]; POLCO, Compound A 15 g/ha): 88% | Obs % visual injury ([6]; POLCO, Compound A 15 g/ha (Table 67)): 63% | % visual injury ([7]; Compound A 10 g/ha): 40% and 30% and 45% | % visual injury, Obs ([7]; Compound A 10 g/ha): 13% | MATCH % visual injury Obs [7, 11]: 13% | % visual injury ([7]; Compound A 15 g/ha): 50% and 45% | % visual injury Obs ([7]; Compound A 15 g/ha): 45% | Obs % visual injury ([7]; MATCH, Compound A 10 g/ha (Table 65)): 13% | Obs % visual injury ([7]; MATCH, Compound A 10 g/ha (Table 66)): 30% | Obs % visual injury ([7]; MATCH, Compound A 10 g/ha (Table 67)): 15% | % visual injury, Obs ([7]; MATCH, Compound A 15 g/ha): 45% | Obs % visual injury ([7]; MATCH, Compound A 15 g/ha): 45% | Obs % visual injury ([7]; MATCH, Compound A 15 g/ha (Table 67)): 10% | % visual injury, Obs ([8]; 10 g/ha): 23% | % visual injury ([8]; Compound A 10 g/ha): 10% | % visual injury, Obs [8, 12]: 18% | VIOTR % visual injury Obs [8, 12]: 18% | % visual injury ([8]; Compound A 15 g/ha): 10% | % visual injury, Obs ([9]; 10 g/ha): 68% | % visual injury, Obs ([9]; BRSNW, Compound A 10 g/ha): 45% | Obs % visual injury ([9]; BRSNW, Compound A 10 g/ha): 45% and 40% | Obs % visual injury ([9]; BRSNW, Compound A 10 g/ha (Table 66)): 68% | Obs % visual injury ([9]; BRSNW, Compound A 10 g/ha (Table 67)): 60% | % visual injury, Obs ([9]; BRSNW, Compound A 15 g/ha): 73% | Obs % visual injury ([9]; BRSNW, Compound A 15 g/ha): 73% | Obs % visual injury ([9]; BRSNW, Compound A 15 g/ha (Table 67)): 75% | % visual injury ([9]; Compound A 10 g/ha): 75% and 43% and 68% and 45% | % visual injury Obs ([9]; Compound A 10 g/ha): 45% and 40% | % visual injury ([9]; Compound A 15 g/ha): 75% and 73% | % visual injury Obs ([9]; Compound A 15 g/ha): 73% | % visual injury, Obs ([10]; 10 g/ha): 83% and 90% and 78% | % visual injury, Obs ([10]; CHEAL, Compound A 10 g/ha): 78% and 83% | Obs % visual injury ([10]; CHEAL, Compound A 10 g/ha): 78% and 80% and 88% | Obs % visual injury ([10]; CHEAL, Compound A 10 g/ha (Table 65)): 88% | Obs % visual injury ([10]; CHEAL, Compound A 10 g/ha (Table 66)): 78% | Obs % visual injury ([10]; CHEAL, Compound A 10 g/ha (Table 67)): 78% | % visual injury, Obs ([10]; CHEAL, Compound A 15 g/ha): 85% | Obs % visual injury ([10]; CHEAL, Compound A 15 g/ha): 85% | Obs % visual injury ([10]; CHEAL, Compound A 15 g/ha (Table 67)): 83% | % visual injury ([10]; Compound A 10 g/ha): 93% and 78% | % visual injury Obs ([10]; Compound A 10 g/ha): 78% and 83% and 80% | % visual injury, Obs ([10]; Compound A 10 g/ha): 88% | CHEAL % visual injury Obs [10, 11]: 88% | % visual injury, Obs [10, 12]: 100% | CHEAL % visual injury Obs [10, 12]: 100% | % visual injury ([10]; Compound A 15 g/ha): 85% | % visual injury Obs ([10]; Compound A 15 g/ha): 85% | % visual injury, Obs (spring wheat (TRZAS); 10 g/ha): 0% | % visual injury (spring wheat (TRZAS); Compound A 10 g/ha): 0% and 3% | % visual injury Obs (spring wheat (TRZAS); Compound A 10 g/ha): 0% | % visual injury, Obs (spring wheat (TRZAS); Compound A 10 g/ha): 0% | TRZAS % visual injury Obs (spring wheat (TRZAS); [11]): 0% | % visual injury, Obs (spring wheat (TRZAS); [12]): 3% | TRZAS % visual injury Obs (spring wheat (TRZAS); [12]): 3% | % visual injury (spring wheat (TRZAS); Compound A 15 g/ha): 0% | % visual injury Obs (spring wheat (TRZAS); Compound A 15 g/ha): 0% | % visual injury, Obs (spring wheat (TRZAS); TRZAS, Compound A 10 g/ha): 0% | Obs % visual injury (spring wheat (TRZAS); TRZAS, Compound A 10 g/ha): 0% | Obs % visual injury (spring wheat (TRZAS); TRZAS, Compound A 10 g/ha (Table 65)): 0% | Obs % visual injury (spring wheat (TRZAS); TRZAS, Compound A 10 g/ha (Table 66)): 0% | Obs % visual injury (spring wheat (TRZAS); TRZAS, Compound A 10 g/ha (Table 67)): 3% | % visual injury, Obs (spring wheat (TRZAS); TRZAS, Compound A 15 g/ha): 0% | Obs % visual injury (spring wheat (TRZAS); TRZAS, Compound A 15 g/ha): 0% | Obs % visual injury (spring wheat (TRZAS); TRZAS, Compound A 15 g/ha (Table 67)): 0% | % visual injury Obs-Exp (spring wheat (TRZAS); printed under Compound A 10 g/ha): 0% | % visual injury Obs-Exp (spring wheat (TRZAS); printed under Compound A 15 g/ha): 0%
